Consider 59 compounds from patent US11465983B2, “USP7 inhibitors for treating multiple myeloma” (Dana-Farber Cancer Institute, Inc., priority 2017, dated 2022).

USP7, sequence (Q93009 208-560 limits assumed): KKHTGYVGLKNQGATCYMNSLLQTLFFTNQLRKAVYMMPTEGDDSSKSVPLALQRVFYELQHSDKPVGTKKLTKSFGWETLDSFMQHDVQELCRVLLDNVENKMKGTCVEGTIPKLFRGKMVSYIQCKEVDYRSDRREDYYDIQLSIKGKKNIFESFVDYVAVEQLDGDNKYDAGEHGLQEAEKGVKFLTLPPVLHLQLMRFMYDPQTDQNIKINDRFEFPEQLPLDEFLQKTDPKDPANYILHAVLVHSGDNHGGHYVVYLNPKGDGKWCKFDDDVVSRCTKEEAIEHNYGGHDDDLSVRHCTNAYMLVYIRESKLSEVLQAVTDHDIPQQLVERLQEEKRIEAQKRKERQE

The first assay concerns the target USP7 (Homo sapiens, UniProt Q93009). In words: Ub-AMC assay (USP7 assay). In kind it is biochemical. On the set-up: fused on or other part: His tag from pET28aLIC; removed by thrombin for the catalytic domain, no removal step given for the full length. The settings on record: USP7 assay. Here is the method:
USP7 and mutants were tested for their activity in Ubiquitin-AMC assay in presence or absence of inhibitors. […] For the same assay USP7 full length WT and Q351 mutant were used at 50 nM. […] The reaction was incubated 30 min at room temperature prior to the addition of 2 uM Ubiquitin-AMC (Boston Biochem) substrate. […] The calculated initial rate values were plotted against inhibitor concentrations to determine IC50s. All the experimental data were plotted using Prism GraphPad. FIG. 2A illustrates the structure guided optimization for the inhibition of USP7.
ND refers to not disclosed.
By IC50 is commonly meant the concentration needed to halve the response being measured. A higher IC50 goes with a need for much substance. “7-Chloro-3-((4-hydroxy-1-(3-phenylpropyl)piperidin-4-yl)methyl)quinazolin-4(3H)-one [Compound 4]” showed a half-maximal inhibitory concentration (IC50) of over 10 µM.
The same measure, in the same setting: to `C[C@H](CC(=O)N1CCC(O)(Cn2cnc3cc(Cl)ccc3c2=O)CC1)c1ccccc1` [Compound 1, (R)-7-Chloro-3-((4-hydroxy-1-(3-phenylbutanoyl)piperidin-4-yl)methyl)quinazolin-4(3H)-one] belongs under 0.2 µM.
Same read-out and setting: the result for `O=C(CCc1ccccc1)N1CCC(Cn2cnc3cc(Cl)ccc3c2=O)CC1` [Compound 2, 7-Chloro-3-((1-(3-phenylpropanoyl)piperidin-4-yl)methyl)quinazolin-4(3H)-one] reads under 0.2 µM; that for `O=C(CCc1ccccc1)N1CCC(O)(Cn2cnc3cc(Cl)ccc3c2=O)C1` (stereo not drawn) [Compound 5, 7-chloro-3-((3-hydroxy-1-(3-phenylpropanoyl)pyrrolidin-3-yl)methyl)quinazolin-4(3H)-one], over 10 µM; that for `CC(=O)N1CCC(O)(Cn2cnc3cc(Cl)ccc3c2=O)CC1` [Compound 6, 3-((1-Acetyl-4-hydroxypiperidin-4-yl)methyl)-7-chloroquinazolin-4(3H)-one], over 10 µM.
Still for that read-out and setting: to `C[C@@H](CC(=O)N1CCC(O)(Cn2cnc3cc(NC(=O)CCN4CCN(C)CC4)ccc3c2=O)CC1)c1ccccc1` [Compound 11, (S)—N-(3-((4-Hydroxy-1-(3-phenylbutanoyl)piperidin-4-yl)methyl)-4-oxo-3,4-dihydroquinazolin-7-yl)-3-(4-methylpiperazin-1-yl)propanamide] belongs under 0.2 µM; to `CC(CC(=O)N1CCC(O)(Cn2cnc3cc(NC(=O)CCN4CCN(C)CC4)ccc3c2=O)CC1)c1ccccc1` (stereo not drawn) [Compound 12], 0.2 to 1 µM; to `CC(C)C(CC(=O)N1CCC(O)(Cn2cnc3cc(NC(=O)CCN4CCN(C)CC4)ccc3c2=O)CC1)c1ccccc1` (stereo not drawn) [Compound 13], 0.2 to 1 µM.
For the compound `C[C@H](CC(=O)N1CCC(O)(Cn2cnc3cc(NC(=O)CCN4CCOCC4)ccc3c2=O)CC1)c1ccccc1` [Compound 14, (R)—N-(3-((4-hydroxy-1-(3-phenylbutanoyl)piperidin-4-yl)methyl)-4-oxo-3,4-dihydroquinazolin-7-yl)-3-morpholinopropanamide], the IC50 was under 0.2 µM.
Same read-out and setting: to `C[C@H](CC(=O)N1CCC(O)(Cn2cnc3cc(NC(=O)CCN(C)C)ccc3c2=O)CC1)c1ccccc1` [Compound 15, (R)-3-(Dimethylamino)-N-(3-((4-hydroxy-1-(3-phenylbutanoyl)piperidin-4-yl)methyl)-4-oxo-3,4-dihydroquinazolin-7-yl)propanamide] belongs under 0.2 µM; to `CC(CC(=O)N1CCC(O)(Cn2cnc3cc(NC(=O)CCn4ccnc4)ccc3c2=O)CC1)c1ccccc1` (stereo not drawn) [Compound 16], under 0.2 µM.
On the same count and under the same terms, the result for `Cn1cc(C(=O)CCl)cc1C(=O)NCCCCC(=O)N1CCC(O)(Cn2cnc3cc(Cl)ccc3c2=O)CC1` [Compound 18] reads 1 to 10 µM; that for `O=C(NCCCCC(=O)N1CCC(O)(Cn2cnc3cc(Cl)ccc3c2=O)CC1)c1ccc2c(c1)CCCN2C(=O)CCl` [Compound 19], 1 to 10 µM.
On the same count and under the same terms, to `C=CCCC(=O)N1CCC(O)(Cn2cnc3cc(Cl)ccc3c2=O)CC1` [Compound 20] belongs over 10 µM; to `N[C@H](Cc1ccccc1)C(=O)N1CCC(O)(Cn2cnc3cc(Cl)ccc3c2=O)CC1` [Compound 21], over 10 µM.
`N[C@@H](Cc1ccccc1)C(=O)N1CCC(O)(Cn2cnc3cc(Cl)ccc3c2=O)CC1` [Compound 22] came in with an IC50 of over 10 µM.
Turning to `O=C(CCc1ccc(Br)cc1)N1CCC(O)(Cn2cnc3cc(Cl)ccc3c2=O)CC1` [Compound 23], the IC50 was over 10 µM.
As to `O=C(CCc1cccc(Br)c1)N1CCC(O)(Cn2cnc3cc(Cl)ccc3c2=O)CC1` [Compound 24], the IC50 was over 10 µM.
Still for that read-out and setting: the result for `O=C(C1CCc2ccccc2C1)N1CCC(O)(Cn2cnc3cc(Cl)ccc3c2=O)CC1` (stereo not drawn) [Compound 25] reads over 10 µM.
Still for that read-out and setting: the result for `O=C(/C=C/c1ccccc1)N1CCC(O)(Cn2cnc3cc(Cl)ccc3c2=O)CC1` [Compound 26] reads over 10 µM; that for `CC(C)(CC(=O)N1CCC(O)(Cn2cnc3cc(Cl)ccc3c2=O)CC1)c1ccccc1` [Compound 28], over 10 µM; that for `CC(Cc1ccccc1)C(=O)N1CCC(O)(Cn2cnc3cc(Cl)ccc3c2=O)CC1` (stereo not drawn) [Compound 29], 0.2 to 1 µM.
With `O=C(C1CC1c1ccccc1)N1CCC(O)(Cn2cnc3cc(Cl)ccc3c2=O)CC1` (stereo not drawn) [Compound 30], the IC50 is 1 to 10 µM.
On the same count and under the same terms, the result for `O=C(COc1ccccc1)N1CCC(O)(Cn2cnc3cc(Cl)ccc3c2=O)CC1` [Compound 31] reads over 10 µM.
Still for that read-out and setting: the result for `O=C([C@@H](O)Cc1ccccc1)N1CCC(O)(Cn2cnc3cc(Cl)ccc3c2=O)CC1` [Compound 32] reads over 10 µM.
As for `O=C(C[C@H](O)c1ccccc1)N1CCC(O)(Cn2cnc3cc(Cl)ccc3c2=O)CC1` [Compound 33], the IC50 is over 10 µM.
In turn, `O=C(CCc1ccccn1)N1CCC(O)(Cn2cnc3cc(Cl)ccc3c2=O)CC1` [Compound 34] displayed an IC50 of over 10 µM.
Compound `O=C(CCc1cccnc1)N1CCC(O)(Cn2cnc3cc(Cl)ccc3c2=O)CC1` [Compound 35] yielded an IC50 of over 10 µM.
The compound `O=C(NCc1ccccc1)N1CCC(O)(Cn2cnc3cc(Cl)ccc3c2=O)CC1` [Compound 36] showed an IC50 of over 10 µM.
Same read-out and setting: the result for `O=c1c2ccc(Cl)cc2ncn1CC1(O)CCN(C(=S)NCc2ccccc2)CC1` [Compound 37] reads over 10 µM.
On the same count and under the same terms, the result for `CN(Cc1ccccc1)C(=O)N1CCC(O)(Cn2cnc3cc(Cl)ccc3c2=O)CC1` [Compound 38] reads 0.2 to 1 µM; that for `CCN(Cc1ccccc1)C(=O)N1CCC(O)(Cn2cnc3cc(Cl)ccc3c2=O)CC1` [Compound 39], 0.2 to 1 µM.
Still for that read-out and setting: the result for `O=C(N1CCC(O)(Cn2cnc3cc(Cl)ccc3c2=O)CC1)N(Cc1ccccc1)Cc1ccccc1` [Compound 40] reads over 10 µM; that for `C[C@H](c1ccccc1)N(C)C(=O)N1CCC(O)(Cn2cnc3cc(Cl)ccc3c2=O)CC1` [Compound 41], over 10 µM.
Compound `C[C@@H](c1ccccc1)N(C)C(=O)N1CCC(O)(Cn2cnc3cc(Cl)ccc3c2=O)CC1` [Compound 42] yielded a concentration for half-maximal inhibition (IC50) of over 10 µM.
The compound `O=C(CCl)NCCC(=O)N1CCC(O)(Cn2cnc3cc(Cl)ccc3c2=O)CC1` [Compound 44] displayed an IC50 of over 10 µM.
Still for that read-out and setting: to `C=CC(=O)NCCCC(=O)N1CCC(O)(Cn2cnc3cc(Cl)ccc3c2=O)CC1` [Compound 46] belongs over 10 µM; to `CC(C)C(CC(=O)N1CCC(O)(Cn2cnc3cc(NC(=O)CCN4CCN(C)CC4)ccc3c2=O)CC1)c1ccccc1` (stereo not drawn) [Compound 47], under 0.2 µM; to `CN1CCN(CCC(=O)Nc2ccc3c(=O)n(CC4(O)CCN(C(=O)CC(c5ccccc5)c5ccccc5)CC4)cnc3c2)CC1` [Compound 48], under 0.2 µM.
On the same count and under the same terms, the result for `CN1CCN(CCC(=O)Nc2ccc3c(=O)n(CC4(O)CCN(C(=O)C(Cc5ccccc5)c5ccccc5)CC4)cnc3c2)CC1` (stereo not drawn) [Compound 49] reads over 10 µM; that for `CC(=O)Nc1cccc2c(=O)n(CC3(O)CCN(C(=O)C[C@@H](C)c4ccccc4)CC3)cnc12` [Compound 50], 1 to 10 µM.
In turn, `O=C(CCn1cccc1)N1CCC(O)(Cn2cnc3cc(Cl)ccc3c2=O)CC1` [Compound 51] returned an IC50 of over 10 µM.
Same read-out and setting: to `O=C(CCc1ccncc1)N1CCC(O)(Cn2cnc3cc(Cl)ccc3c2=O)CC1` [Compound 52] belongs over 10 µM; to `COc1ccc(CCC(=O)N2CCC(O)(Cn3cnc4cc(Cl)ccc4c3=O)CC2)cc1` [Compound 53], over 10 µM.
Take `O=C(CCc1ccc(F)cc1)N1CCC(O)(Cn2cnc3cc(Cl)ccc3c2=O)CC1` [Compound 54]: the IC50 is 0.2 to 1 µM.
`O=C(CCC1CCCCC1)N1CCC(O)(Cn2cnc3cc(Cl)ccc3c2=O)CC1` [Compound 55] came in with a 50% inhibitory concentration (IC50) of over 10 µM.
Same read-out and setting: to `O=C(CCc1ccccc1)N1CCC(O)(Cn2cnc3cc([N+](=O)[O-])ccc3c2=O)CC1` [Compound 56] belongs over 10 µM.
On the same count and under the same terms, the result for `Nc1ccc2c(=O)n(CC3(O)CCN(C(=O)CCc4ccccc4)CC3)cnc2c1` [Compound 57] reads over 10 µM; that for `Nc1ccc2c(c1)NCN(CC1(O)CCN(C(=O)CCc3ccccc3)CC1)C2=O` [Compound 58], over 10 µM; that for `C=CC(=O)N[C@@H](Cc1ccccc1)C(=O)N1CCC(O)(Cn2cnc3cc(Cl)ccc3c2=O)CC1` [Compound 59], over 10 µM.
On the same count and under the same terms, to `O=C(CCc1ccccc1)N1CCC(Cn2cnc3cc(Cl)ccc3c2=O)CC1` [Compound 60] belongs over 10 µM; to `O=C(CCc1ccc([N+](=O)[O-])cc1)N1CCC(O)(Cn2cnc3cc(Cl)ccc3c2=O)CC1` [Compound 61], over 10 µM.
Take `O=C(CF)N[C@@H](Cc1ccccc1)C(=O)N1CCC(O)(Cn2cnc3cc(Cl)ccc3c2=O)CC1` [Compound 62]: the 50% inhibitory concentration (IC50) is over 10 µM.
As for `[N-]=[N+]=NCCOCCOCC(=O)Nc1ccc2c(=O)n(CC3(O)CCN(C(=O)CCc4ccccc4)CC3)cnc2c1` [Compound 63], the IC50 is over 10 µM.
On the same count and under the same terms, to `CC(=O)Nc1ccc2c(=O)n(CC3(O)CCN(C(=O)CCc4ccccc4)CC3)cnc2c1` [Compound 64] belongs 1 to 10 µM; to `O=C(C1CCCN1c1ccccc1)N1CCC(O)(Cn2cnc3cc(Br)ccc3c2=O)CC1` (stereo not drawn) [Compound 65], over 10 µM.
The same measure, in the same setting: to `O=C(CCc1ccc(F)cc1)N1CCC(O)(Cn2cnc3cc(Cl)ccc3c2=O)C1` (stereo not drawn) [Compound 66] belongs over 10 µM.
Still for that read-out and setting: the result for `O=C(C#Cc1ccccc1)N1CCC(O)(Cn2cnc3cc(Cl)ccc3c2=O)CC1` [Compound 67] reads over 10 µM; that for `O=C(CCc1ccccc1)N1CCC(O)(Cn2cnc3ccc([N+](=O)[O-])cc3c2=O)CC1` [Compound 68], over 10 µM.

Staying with this assay, now noted: USP7 inhibition, FIG. 2A.
Regarding `C[C@@H](CC(=O)N1CCC(O)(Cn2cnc3cc(NC(=O)CCN4CCN(C)CC4)ccc3c2=O)CC1)c1ccccc1` [Compound 11, (S)—N-(3-((4-Hydroxy-1-(3-phenylbutanoyl)piperidin-4-yl)methyl)-4-oxo-3,4-dihydroquinazolin-7-yl)-3-(4-methylpiperazin-1-yl)propanamide], the “fold less active than its enantiomer compound 10” value is recorded as 80 fold.
